Where two headings read alike, the source gives them in different places.
How the values were obtained:
[1] = tested on: PI3Kα H1047R mutation cell line T-47D; experiment: Cell Proliferation IC50 Assay (CellTiter-Glo), T-47D; assay type: cell-based; conditions: read-out: IC50 (μM) T47D
Text: (§1) PI3Kα H1047R mutation cell line T-47D and MDA-MB-453, E545K mutation cell line MDA-MB-361 and PI3Kα wide type cell line SK-BR-3 were purchased from Cobioer Biotech (cat. no CBP60397, CBP60386, CBP60383 and CBP60413 respectively). The CellTiter-Glo Direct Cell Proliferation Assay Kit was purchased from Prornega (cat. No. G7573)
(§2) For cell proliferation assay in each cell line: • a. Prepare complete medium (R PMI 1640, DMEM or McCoys): Add FBS and appropriate additives according to the information sheet provided by the vendor. Mix gently. • b. Prepare single cell suspension and count the cell numbers and adjust cells to appropriate density. • c. Add 80 μL of cell suspension to 96-well opaque-walled clear bottom plates according to the planned plate layout and place the plates in the CO2 incubator overnight. • d. Prepare intermediate plate: 10 μl of diluted test compounds or staurosporine solution (200×) is added to a 96 deep well plate. Then 390 μl of culture medium without FBS is added to the respective wells. • e. Transfer 20 μL of the solutions from the above intermediate plate to the wells of the plate prepared containing 80 μL of the culture medium and cells. The total dilution is 200 folds. • f. The cells were then incubated at 5% CO2, 37° C. for 72 hours. • g. Equilibrate the plate and its contents to room temperature for approximately 30 minutes. • h. Add 100 μL of CellTiter-Glo reagent to the assay plate • i. Mix contents for 10 minutes on an orbital shaker to induce cell lysis. • j. Allow the plate to incubate at room temperature for 10 minutes to stabilize luminescent signal, • k. Paste the clear bottom with white back seal and record luminescence with Varioskan LUX plate reader.
(§3) Inhibition % and IC50 value were calculated by the formula described below: […]

[2] = tested on: PI3Kα wide type cell line SK-BR-3; experiment: Cell Proliferation IC50 Assay (CellTiter-Glo), SK-BR-3; assay type: cell-based; conditions: read-out: IC50 (μM) SK-BR-3
Text: as §1, §2, §3

[3] = Homo sapiens, T47D, 72 h, T47D (H1047R), 72 hours, CellTiter-Glo
[4] = Homo sapiens, SK-BR-3 (PI3Kα wild type), 72 hours, CellTiter-Glo
[5] = Homo sapiens, T47D (H1047R), 72 hours, CellTiter-Glo

Compound | IC50 [1, 3] | IC50 [2, 4] | also measured
Cc1cc(C(C)Nc2ccccc2C(=O)O)c2oc(-c3ccc(N4CCNCC4)cc3)cc(=O)c2c1 (stereo not drawn) [Example 41, 2-((1-(6-methyl-4-oxo-2-(4-(piperazin-1-yl)phenyl)-4H-chromen-8-yl)ethyl)amino)benzoic acid] | 1.43 µM | > 10 µM | –
Cc1cc([C@@H](C)Nc2ccccc2C(=O)O)c2oc(-c3ccc(Cn4cncn4)cc3)c(C)c(=O)c2c1 [Example 136, (R)-2-((1-(2-(4-((1H-1,2,4-triazol-1-yl)methyl)phenyl)-3,6-dimethyl-4-oxo-4H-chromen-8-yl)ethyl)amino)benzoic acid] | > 10 µM | > 10 µM | –
Cc1cc(C(C)Nc2ccccc2P(=O)(O)O)c2oc(-c3ccc4nn(C)cc4c3)c(C)c(=O)c2c1 (stereo not drawn) [Example 176] | – | – | IC50 ([1]; Homo sapiens, T47D, 72 h): > 10 µM; IC50 ([2]; Homo sapiens, SK-BR-3, 72 h): > 10 µM
Cc1cc(C(C)Nc2ccccc2C(=O)O)c2oc(-c3cc4cn(C)nc4cn3)cc(=O)c2c1 (stereo not drawn) [Example 83, 2-((1-(6-methyl-2-(2-methyl-2H-pyrazolo[3,4-c]pyridin-5-yl)-4-oxo-41H-chromen-8-yl)ethyl)amino)benzoic acid] | – | > 10 µM | IC50 [1, 5]: 0.38 µM
Cc1cc(C(C)Nc2ccccc2C(=O)O)c2oc(-c3ccc4c(c3)CNC4=O)cc(=O)c2c1 (stereo not drawn) [Example 5, 2-((1-(6-methyl-4-oxo-2-(1-oxoisoindolin-5-yl)-4H-chromen-8-yl)ethyl)amino)benzoic acid] | 1.54 µM | > 10 µM | –
Cc1cc([C@@H](C)Nc2ccccc2C(=O)O)c2oc(-c3ccc(OCC4CCCN4C)cc3)c(C)c(=O)c2c1 (single isomer, unassigned) [Example 172B] | – | – | IC50 ([1]; T47D (H1047R), 72 hours, CellTiter-Glo): 0.063 µM; IC50 ([2]; SK-BR-3 (PI3Kα wild type), 72 hours, CellTiter-Glo): > 10 µM
Cc1cc([C@H](C)Nc2ccccc2C(=O)O)c2oc(-c3ccc4nn(C)cc4c3)c(C)c(=O)c2c1 (single isomer, unassigned) [Example 49B] | 7.24 µM | > 10 µM | –
Cc1cc(C(C)Nc2ccccc2C(=O)O)c2oc(-c3cc4n(c3)CCN(C)C4=O)c(C)c(=O)c2c1 (stereo not drawn) [Example 72, 2-((1-(3,6-dimethyl-2-(2-methyl-1-oxo-1,2,3,4-tetrahydropyrrolo[1,2-a]pyrazin-7-yl)-4-oxo-4H-chromen-8-yl)ethyl)amino)benzoic acid] | 5.08 µM | > 10 µM | –
Cc1cc(C(C)Nc2ncccc2C(=O)O)c2oc(-c3ccc4nn(C)cc4c3)cc(=O)c2c1 (stereo not drawn) [Example 113, 2-((1-(6-methyl-2-(2-methyl-2H-indazol-5-yl)-4-oxo-4H-chromen-8-yl)ethyl)amino)nicotinic acid] | 0.67 µM | > 10 µM | –
Cc1cc([C@@H](C)Nc2ccccc2C(=O)O)c2oc(-c3ccc(C4CN(C)CCO4)cc3)c(C)c(=O)c2c1 (stereo partly drawn) [Example 167, 2-(((1R)-1-(3,6-dimethyl-2-(4-(4-methylmorpholin-2-yl)phenyl)-4-oxo-4H-chromen-8-yl)ethyl)amino)benzoic acid] | – | 8.34 µM | IC50 [1, 5]: 0.092 µM
Cc1cc(C(C)Nc2cnccc2C(=O)O)c2oc(-c3ccc4nn(C)cc4c3)cc(=O)c2c1 (stereo not drawn) [Example 112, 3-((1-(6-methyl-2-(2-methyl-2H-indazol-5-yl)-4-oxo-4H-chromen-8-yl)ethyl)amino)isonicotinic acid] | > 10 µM | > 10 µM | –
Cc1cc(C(C)Nc2ccccc2C(=O)O)c2oc(-c3ccccn3)cc(=O)c2c1 (stereo not drawn) [Example 31, 2-((1-(6-methyl-4-oxo-2-(pyridin-2-yl)-4H-chromen-8-yl)ethyl)amino)benzoic acid] | 0.9 µM | > 10 µM | –

The next lines start with results.

IC50 [1, 3] | IC50 [2, 4] | Compound | also measured
0.18 µM | > 10 µM | Cc1cc([C@@H](C)Nc2ccccc2C(=O)O)c2oc(-c3ccc(Cn4ccnc4)cc3)c(C)c(=O)c2c1 [Example 146, (R)-2-((1-(2-(4-((1H-imidazol-1-yl)methyl)phenyl)-3,6-dimethyl-4-oxo-4H-chromen-8-yl)ethyl)amino)benzoic acid] | –
0.25 µM | > 10 µM | Cc1cc(C(C)Nc2ccccc2C(=O)O)c2oc(-c3ccc(-n4ccnc4)cc3)cc(=O)c2c1 (stereo not drawn) [Example 143, 2-((1-(2-(4-(1H-imidazol-1-yl)phenyl)-6-methyl-4-oxo-4H-chromen-8-yl)ethyl)amino)benzoic acid] | –
0.12 µM | > 10 µM | COC(=O)N1CCN(c2ccc(-c3oc4c([C@@H](C)Nc5ccccc5C(=O)O)cc(C)cc4c(=O)c3C)cn2)CC1 (single isomer, unassigned) [Example 155A] | –
0.072 µM | > 10 µM | Cc1cc([C@@H](C)Nc2ccccc2C(=O)O)c2oc(-c3ccc(OC4CN(C)C4)cc3)c(C)c(=O)c2c1 [Example 171, (R)-2-((1-(3,6-dimethyl-2-(4-((1-methylazetidin-3-yl)oxy)phenyl)-4-oxo-4H-chromen-8-yl)ethyl)amino)benzoic acid] | –
0.044 µM | > 10 µM | Cc1cc([C@@H](C)Nc2ccccc2C(=O)O)c2oc(-c3ccc(OCCN4CCOCC4)cc3)c(C)c(=O)c2c1 [Example 141, (R)-2-((1-(3,6-dimethyl-2-(4-(2-morpholinoethoxy)phenyl)-4-oxo-4H-chromen-8-yl)ethyl)amino)benzoic acid] | –
0.14 µM | > 10 µM | Cc1cc(C(C)Nc2ccccc2C(=O)O)c2oc(-c3ccc(-c4cn(C)cn4)cc3)cc(=O)c2c1 (stereo not drawn) [Example 144, 2-((1-(6-methyl-2-(4-(1-methyl-1H-imidazol-4-yl)phenyl)-4-oxo-4H-chromen-8-yl)ethyl)amino)benzoic acid] | –
0.27 µM | 2.02 µM | CNC(=O)c1ccccc1N[C@H](C)c1cc(C)cc2c(=O)c(C)c(-c3ccc(-c4cnn(C)c4)nc3)oc12 [Example 191, (R)-2-((1-(3,6-dimethyl-2-(6-(1-methyl-1H-pyrazol-4-yl)pyridin-3-yl)-4-oxo-4H-chromen-8-yl)ethyl)amino)-N-methylbenzamide] | –
0.15 µM | > 10 µM | Cc1cc(C(C)Nc2ccccc2C(=O)O)c2oc(-c3ccc(N4CCOCC4)nc3)c(C)c(=O)c2c1 (stereo not drawn) [Example 81, 2-((1-(3,6-dimethyl-2-(6-morpholinopyridin-3-yl)-4-oxo-4H-chromen-8-yl)ethyl)amino)benzoic acid] | –
0.11 µM | > 10 µM | Cc1cc([C@@H](C)Nc2ccc(Cl)nc2C(=O)O)c2oc(-c3ccc(CN4CCN(C)CC4)cc3)c(C)c(=O)c2c1 [Example 189, (R)-6-chloro-3-((1-(3,6-dimethyl-2-(4-((4-methylpiperazin-1-yl)methyl)phenyl)-4-oxo-4H-chromen-8-yl)ethyl)amino)picolinic acid] | –
0.042 µM | 4.39 µM | Cc1cc([C@@H](C)Nc2ccc(Cl)nc2C(=O)O)c2oc(-c3ccc(OCCN(C)C)cc3)c(C)c(=O)c2c1 [Example 165, (R)-6-chloro-3-((1-(2-(4-(2-(dimethylamino)ethoxy)phenyl)-3,6-dimethyl-4-oxo-41-1 chromen-8-yl)ethyl)amino)picolinic acid] | –
0.19 µM | > 10 µM | CC(=O)N1CCN(Cc2ccc(-c3oc4c([C@@H](C)Nc5ccccc5C(=O)O)cc(C)cc4c(=O)c3C)cc2)CC1 [Example 137, (R)-2-((1-(2-(4-((4-acetylpiperazin-1-yl)methyl)phenyl)-3,6-dimethyl-4-oxo-4H-chromen-8-yl)ethyl)amino)benzoic acid] | –
0.31 µM | > 10 µM | CCn1cc2cc(-c3cc(=O)c4cc(C)cc(C(C)Nc5ccccc5C(=O)O)c4o3)ccc2n1 (stereo not drawn) [Example 93, 2-((1-(2-(2-ethyl-2H-indazol-5-yl)-6-methyl-4-oxo-41H-chromen-8-yl)ethyl)amino)benzoic acid] | –
0.23 µM | > 10 µM | Cc1cc([C@@H](C)Nc2ccccc2C(=O)O)c2oc(-c3ccc(OCCN(C)C)cc3)cc(=O)c2c1 [Example 166, (R)-2-((1-(2-(4-(2-(dimethylamino)ethoxy)phenyl)-6-methyl-4-oxo-4H-1-chromen-8-yl)ethyl)amino)benzoic acid] | –
0.065 µM | > 10 µM | Cc1cc([C@@H](C)Nc2ccccc2C(=O)O)c2oc(-c3ccc(OCC4CCCN4C)cc3)c(C)c(=O)c2c1 (single isomer, unassigned) [Example 172A] | –
0.096 µM | > 10 µM | Cc1cc([C@@H](C)Nc2ccccc2C(=O)O)c2oc(-c3ccc(N4CC(N(C)C)C4)cc3)c(C)c(=O)c2c1 [Example 170, (R)-2-((1-(2-(4-(3-(dimethylamino)azetidin-1-yl)phenyl)-3,6-dimethyl-4-oxo-4H-chromen-8-yl)ethyl)amino)benzoic acid] | –

Reference: patent US20250136568A1, “FUSED HETEROCYCLIC COMPOUNDS AS PI3KALPHA INHIBITORS” (Nanjing Zenshine Pharmaceuticals Co., Ltd., priority 2021, published 2025)
